According to US11905338B2, “Peptides for use as cell-penetrating peptides” (CENTRE NATIONAL DE LA RECHERCHE SCIENTIFIQUE, priority 2018, dated 2024):
Entries after “also recorded” stand apart in the source; their conditions may differ. Where no end group is shown, it is not given here. [ ]: non-standard residue; d: D form. Ahx = NCCCCCC(=O)O

How the values were obtained:
[1] = tested on: FLuc in U937 human macrophage; experiment: Luciferase silencing on non-adherent macrophage suspension; assay type: cell-based; conditions: 10-50 nM siRNA without CPP
Description: FIG. 15: Evaluation of CPP1:siRNA and CPP2:siRNA PBNs activity on cell suspensions. […] Incubation conditions: 10,000 cells/well, CPP:siRNA ratio=20:1 at the indicated siRNA concentration, incubation time 1.5 h in serum-free medium. Normalization of FLuc/NLuc values to the condition of untreated cells (N.T.). Abbreviations: siSCR=scrambled siRNA, siFLuc=firefly luciferase specific siRNA. n=2 independent experiments in triplicates. […] Incubation conditions: 10,000 cells/well, CPP:siRNA ratio=20:1 at the indicated siRNA concentration, incubation time 1.5 h in medium containing 10% serum. Normalization of FLuc/NLuc values to the condition of untreated cells (N.T.). Abbreviations: siSCR=scrambled siRNA, siFLuc=firefly luciferase specific siRNA. n=2 independent experiments in triplicates. […] Incubation conditions: 10,000 cells/well, CPP:siRNA ratio=20:1 at the indicated siRNA concentration (or the siRNA alone), incubation time 1.5 h in serum-free medium. Normalization of FLuc values to the condition of untreated cells (N.T.). n=2 independent experiments in triplicates. Next, the transfection potential of the CPP2:siFLuc on non-adherent cells such as the firefly luciferase stably transfected U937 human macrophage was evaluated (FIG. 15C). […] The silencing efficiency was determined with 40%, 80% and 100% for the siRNA concentrations of 10 nM, 20 nM and 50 nM, respectively.

[2] = Circular dichroism conformational analysis; assay type: physicochemical; conditions: for Conformation by circular dichroism, PEPTIDE +siRNA: CPP:siRNA molar ratio R 20, CPP 40 μM; for Conformation by circular dichroism, PEPTIDE +siRNA +charged LUVs / Conformation by circular dichroism, PEPTIDE +siRNA +neutral LUVs: R 20, CPP:lipid r 10, CPP 40 μM; for Conformation by circular dichroism, PEPTIDE: peptide free in solution, CPP 40 μM, rc = random coiled
Description: Circular dichroism (CD) measurements. CD spectra were recorded on a Jasco 810 (Japan) dichrograph in quartz suprasil cells (Hellma) with an optical path of 1 mm for peptide in solution or in the presence of liposomes vesicles. The same concentrations of peptide (40 μM) was used for each condition. Spectra were obtained from 3 accumulations between 190 nm and 260 nm with a data pitch of 0.5 nm, a bandwidth of 1 nm and a standard sensitivity.
The predicted structures were then compared to experimental investigations. Circular dichroism spectra were recorded for the peptides free in solution, afterwards for the peptides in the presence of siRNA and then after the addition of liposomes.

[3] = Dynamic light scattering and zeta potential of nanoparticles; assay type: physicochemical; conditions: for PdI / Mean size (nm) I (%) / Mean size (nm) Nb (%): CPP:siRNA R = 20, 5% glucose; for Mean size (nm) I (%): intensity; for Mean size (nm) Nb (%): number
Description: Dynamic light scattering (DLS) and Zeta potential (ZP). CPPs:siRNA nanoparticles were evaluated with a Zetasizer NanoZS (Malvern) in terms of mean size (Z-average) of the particle distribution and of homogeneity (PdI). Zeta potential was determined in 5% glucose+5 mM of NaCl. All results were obtained from three independent measurements (three runs for each measurement at 25° C.).

[4] = tested on: firefly luciferase (FLuc) in U87 cells; experiment: Luciferase reporter gene silencing assay; assay type: cell-based, human; conditions: for Luciferase knock-down at R=40 relative to R=20: R=40, siFLuc 20 nM; for Incubation time for maximum and saturating FLuc silencing / Reduction of FLuc activity: 20 nM siFLuc; for Reduction in the luciferase activity in presence of serum: 10% serum, 15-20 nM siRNA (CPP1), 10-20 nM (CPP2); for Reduction of FLuc activity: 5 min incubation, then 36 h in medium; for Fold more active than C6M1-L in reduced luciferase expression / Fold more active than C6M1 in reduced luciferase expression: CPP=200 nM, siRNA=10 nM; for Activity of nanoparticles in luciferase silencing: R=20, siFLuc, compared with parent CPP
Description: Transfection experiments. For Luciferase assay, the different cells (5,000 cells per well) were seeded 24 h before experiment into 96-well plates using the corresponding medium as described above. […] In the meantime, the growth medium covering the cells was replaced by 70 μL of fresh pre-warmed serum-free DMEM. […] After the addition of DMEM supplemented with 20% FBS (final FBS concentration=10%), cells were further incubated for 36 h and finally lysed for the luciferase detection. For transfection in the presence of serum, cells were incubated with nanoparticles in DMEM+10% FBS for 1.5 h at 37° C., and then DMEM supplemented with 10% FBS were added to the cells which were further incubated for 36 h before the final cell lyses for the luciferase detection.
Luciferase reporter gene silencing assay. The evaluation of siRNA delivery using the different vectors was carried out by measuring the remaining luciferase firefly (FLuc) activity in cell lysates. Briefly, after 36 h, the medium covering the cells was carefully removed and replaced by 50 μL of 0.5× Passive Lysis Buffer (PLB; Promega). After 30 min of shaking at 4° C., plates containing the cells were centrifuged (10 min, 1,800 rpm, 4° C.) and 5 μL of each cell lysate supernatant were finally transferred into a white 96-well plate. For the U87-FLuc-NLuc cells, both luciferase activities were quantified using a plate-reading luminometer (POLARstar Omega, BMG Labtech) using half-diluted Dual Luciferase Assay Reagents (Promega) as reported elsewhere (G. Aldrian, et al., (2017) J. Control. Release Off. J. Control. Release Soc. 256, 79-91). The results were expressed as percentage of relative light units (RLU) for each luciferase normalized first to non-treated cells (% FLuc and % NLuc) and then normalized to the value of % NLuc to obtain the Relative Luc Activity (% FLuc/% NLuc).
Cellular activity of CPP-based nanoparticles was evaluated in a luciferase screening assay, as previously described (L. N. Patel, et al., (2007) Pharm. Res. 24, 1977-1992; A. Elmquist, et al., (2001) Exp. Cell Res. 269, 237-244)). The knock-down efficiency of the different CPP:siRNA nanoparticles was performed on U87 cell line stably transfected for constitutive expression of FLuc/NLuc reporter genes (U87-FRT-CMV/Fluc-CMV/iRFP-IRES-NLuc).

[5] = Dynamic light scattering and zeta potential of nanoparticles; assay type: physicochemical
U87 cells [6] = experiment: LDH cytotoxicity measurement; assay type: cell-based, human; conditions: incubation times 5 min to 90 min, 20 nM siFLuc
Description: Measurement of cell cytotoxicity. Evaluation of cytotoxicity induced by the nanoparticles was performed using Cytotoxicity Detection Kit^Plus (LDH, Roche Diagnostics) on 50 μL of supernatant, by following the manufacturer instructions.

living U87 cells = experiment: Spinning disk internalization kinetics of Cy3b-labelled siRNA; assay type: cell-based, human; conditions: siRNA-Cy3b 20 nM, R=20; for Incubation time to maximal fluorescence of delivered siRNA: maximal fluorescence 90%±5%, 900 s to 945 s
Description: For microscopy experiments, 300,000 U87 cells were seeded 24 h before imaging into glass bottom dishes (FluoroDish, World Precision Instruments). Before experiments, cells were washed twice with D-PBS and covered with 1,600 μL of complete medium. Afterwards, 400 μL of NPs (peptide:siRNA; R=20, siRNA=20 nM), formulated in an aqueous solution of 5% glucose were directly added on the cells as previously described.
For Spinning disk experiment, an inverted microscope (Nikon Ti Eclipse) coupled to a spinning disk (ANDOR) system was used to study the internalization kinetics of the NPs inside living cells. After the addition of the NPs, cells were maintained at 37° C. by a cage incubator (Okolab) and images were directly recorded every 5 s for 1,200 s with an EM-CCD camera (iXon Ultra) and projected with the Andor IQ3 software. Control experiments were performed to ensure that no emission bleed through was observed between the different channels. All images were treated with the ImageJ software.

U87 cells [7] = experiment: Cytotoxicity from Western blot internal control (vinculin) and total protein (BCA); assay type: cell-based, human; conditions: siCDK4 50 nM
Description: Western blotting. Transfected cells washed in PBS, and lysed in RIPA buffer [50 mM Tris pH 8.0, 150 mM sodium chloride, 1% Triton X-100, 0.1% SDS (sodium dodecyl sulfate, Sigma-Aldrich), including protease inhibitors (SigmaFAST, Sigma-Aldrich)]. Cells were incubated for 5 min on ice with 130 μL/24-well lysis buffer. Thereafter, cells were scrapped and transferred in a 1.5 ml tube. After 5 min on ice, the cell lysates were centrifuged (10 min, 13,400 rpm, 4° C.), supernatants were collected and protein concentrations were determined using the Pierce BCA Protein Assay (ThermoFisher). Cell extracts (0.25-0.38 μg/μL) were separated by 4-20% Mini-PROTEAN® TGX™ Precast Gel (Bio-Rad). After electrophoresis, samples were transferred onto Trans-Blot® Turbo™ Mini PVDF Transfer membrane (Bio-Rad). As antibodies (all from Cell Signaling), we used anti-cyclin B1 mouse mAb V152, anti-CDK4 rabbit mAb D9G3E, anti-Vinculin rabbit mAb E1E9V, anti-mouse IgG HRP and anti-rabbit IgG HRP. […] The signal intensities of the blots were quantified by Image J.
The cytotoxicity could be observed in Western blot using the internal control (Vinculin expression: bars in dark gray) or the total protein concentrations (measured by the BCA kit, value in red).

| Conformation by circular dichroism, PEPTIDE +siRNA +charged LUVs [2] | Conformation by circular dichroism, PEPTIDE +siRNA +neutral LUVs [2] | Conformation by circular dichroism, PEPTIDE [2] | Substance | Conformation by circular dichroism, PEPTIDE +siRNA [2] | PdI [3] | Luciferase knock-down at R=40 relative to R=20 [4] | Mean size (nm) I (%) [3] [nm] | Mean size (nm) Nb (%) [3] [nm] | other results |
| --- | --- | --- | --- | --- | --- | --- | --- | --- | --- |
|  |  |  | 5′-CUU-ACG-CUG-AGU-ACU-UCG-AdTdT-3′ [siFLuc] |  |  |  |  |  | Knock-down efficiency of siRNA alone [1]: did not shown any knock-down efficiency |
| helix | helix | turn/rc | LLRLLRWWWRLLRLL-NH2 [CPP2, LLRLLRWWWRLLRLL] | alpha helical structure; also recorded: helix |  | slightly increased | 80.0 ± 4.9 | 35.7 ± 7.3 | ZP (mV) ([5]; CPP:siRNA R = 20, 5% glucose with 1 mM NaCl): 28.8 ± 0.9 mV; Cytotoxicity (U87 cells [6]): without any cytotoxicity; IC50 values of internalization (50%), incubation time (living U87 cells): 185 s; Incubation time to maximal fluorescence of delivered siRNA (living U87 cells): ~15 min; Reduction of firefly luciferase expression ([4]; 1 nM to 20 nM siRNA, R 20, L or D isoform): dose-dependent manner; Incubation time for maximum and saturating FLuc silencing [4]: 60 min; Reduction in the luciferase activity in presence of serum [4]: around 70%; Reduction of FLuc activity [4]: 40%; Fold more active than C6M1-L in reduced luciferase expression [4]: 3.5 fold; Fold more active than C6M1 in reduced luciferase expression [4]: 2 fold; Increase of knock-down efficiency, dilution condition versus vol:vol condition ([4]; U87 cells, siFLuc 5-20 nM): 2 fold |
| helix | helix | turn | LLRLLRWWWWRLLRLL [CPP4] | alpha helical structure; also recorded: helix |  | slightly increased | 122.0 ± 71.5 | 23.6 ± 7.9 |  |
|  |  |  | LLRLRWWWRLRLL (CPP2-2) |  |  |  |  |  | Activity of nanoparticles in luciferase silencing [4]: total inactivity |
| helix | helix | rc/helix | LLWRLWRLLWRLWRLL-NH2 [CPP1, LLWRLWRLLWRLWRLL] | alpha helical structure; also recorded: helix |  | slightly increased | 73.3 ± 7.4 | 26.5 ± 4.1 | Mean size of CPP1:MBBO nanoparticles (DLS) ([5]; R=5, 10 μM CPP1): 180 nm; Cytotoxicity (U87 cells [6]): without any cytotoxicity; IC50 values of internalization (50%), incubation time (living U87 cells): 240 s; Incubation time to maximal fluorescence of delivered siRNA (living U87 cells): ~15 min; Cytotoxicity (vinculin, total cellular proteins) (U87 cells [7]): without any cytotoxicity; ZP (mV) ([3]; CPP:siRNA R = 20, 5% glucose with 5 mM NaCl): 42.2 ± 4.5 mV; Incubation time for maximum and saturating FLuc silencing [4]: 60 min; Reduction in the luciferase activity in presence of serum [4]: around 70%; Reduction of FLuc activity [4]: 40%; Fold more active than C6M1-L in reduced luciferase expression [4]: 6 fold; Fold more active than C6M1 in reduced luciferase expression [4]: 3 fold |
|  |  |  | LRLRWWWRLRL (CPP2-1) |  |  |  |  |  | Activity of nanoparticles in luciferase silencing [4]: total inactivity |
|  |  |  | RGD-Ahx-LLRLLRWWWRLLRLL (RGD[Ahx]LLRLLRWWWRLLRLL) [R-CPP2] |  |  |  |  |  | Reduction in the expression of luciferase ([4]; RGD-grafted peptide, R=20): ~70% |
|  |  |  | RLLRLLRWWWRLLRLLR (CPP2-6R) |  | 0.34 ± 0.03 |  | 59.8 ± 9.3 | 25.9 ± 3.9 |  |
|  |  |  | RLLRLLWWWLLRLLR-NH2 [CPP2-4R, RLLRLL-WWW-LLRLLR] |  |  |  |  |  | Cytotoxic effect inferred from variability of luciferase measurement ([4]; nanoparticle incubation): some cytotoxic effect |
|  |  |  | RLLWRLW-----LWRLLR (RLLWRLWLWRLLR; CPP1-4R) |  | 0.50 ± 0.04 |  | 1012 ± 984 | 422 ± 498 |  |
|  |  |  | RLLWRLWRLLWRLWRLLR (CPP1-6R) |  | 0.42 ± 0.08 |  | 125.3 ± 65.1 | 23.3 ± 3.4 |  |

| Substance | Conformation by circular dichroism, PEPTIDE +siRNA +charged LUVs [2] | Conformation by circular dichroism, PEPTIDE +siRNA +neutral LUVs [2] | Conformation by circular dichroism, PEPTIDE [2] | Conformation by circular dichroism, PEPTIDE +siRNA [2] | PdI [3] | Luciferase knock-down at R=40 relative to R=20 [4] | Mean size (nm) I (%) [3] [nm] | Mean size (nm) Nb (%) [3] [nm] | other results |
| --- | --- | --- | --- | --- | --- | --- | --- | --- | --- |
| LLRLLRWWRLLRLL (CPP3) | helix | helix | turn | alpha helical structure; also recorded: helix | around 0.3 | slightly increased |  |  |  |
